Measured values taken from patent US12516039B2, “N-linked isoquinoline amides as LRRK2 inhibitors, pharmaceutical compositions, and uses thereof” (Merck Sharp & Dohme LLC, priority 2020, dated 2026).

molecular target: T1, GST-tagged truncated human mutant G2019S LRRK2 (Homo sapiens, UniProt Q5S007, G2019S); assay: LRRK2 G2019S Km ATP LanthaScreen assay; format: biochemical; details: 134 μM ATP (Km ATP), LRRKtide substrate, mean of several tests
T1 construct: GST-tagged truncated human mutant G2019S LRRK2; purchased Life Technologies Corporation (Carlsbad, CA)
Summary of the method: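 IC50 values are means of repeat runs, fitted with a 4-parameter logistic to the 520/495 nm TR-FRET ratio from a Tb-labeled anti-phospho-LRRKtide antibody added with EDTA. Reactions ran 90 min at room temperature at Km ATP (134 μM) with fluorescein-LRRKtide, after 15-min compound preincubation with truncated GST-tagged G2019S LRRK2.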

T1 sequence (Q5S007 970-2527 G2019S limits assumed): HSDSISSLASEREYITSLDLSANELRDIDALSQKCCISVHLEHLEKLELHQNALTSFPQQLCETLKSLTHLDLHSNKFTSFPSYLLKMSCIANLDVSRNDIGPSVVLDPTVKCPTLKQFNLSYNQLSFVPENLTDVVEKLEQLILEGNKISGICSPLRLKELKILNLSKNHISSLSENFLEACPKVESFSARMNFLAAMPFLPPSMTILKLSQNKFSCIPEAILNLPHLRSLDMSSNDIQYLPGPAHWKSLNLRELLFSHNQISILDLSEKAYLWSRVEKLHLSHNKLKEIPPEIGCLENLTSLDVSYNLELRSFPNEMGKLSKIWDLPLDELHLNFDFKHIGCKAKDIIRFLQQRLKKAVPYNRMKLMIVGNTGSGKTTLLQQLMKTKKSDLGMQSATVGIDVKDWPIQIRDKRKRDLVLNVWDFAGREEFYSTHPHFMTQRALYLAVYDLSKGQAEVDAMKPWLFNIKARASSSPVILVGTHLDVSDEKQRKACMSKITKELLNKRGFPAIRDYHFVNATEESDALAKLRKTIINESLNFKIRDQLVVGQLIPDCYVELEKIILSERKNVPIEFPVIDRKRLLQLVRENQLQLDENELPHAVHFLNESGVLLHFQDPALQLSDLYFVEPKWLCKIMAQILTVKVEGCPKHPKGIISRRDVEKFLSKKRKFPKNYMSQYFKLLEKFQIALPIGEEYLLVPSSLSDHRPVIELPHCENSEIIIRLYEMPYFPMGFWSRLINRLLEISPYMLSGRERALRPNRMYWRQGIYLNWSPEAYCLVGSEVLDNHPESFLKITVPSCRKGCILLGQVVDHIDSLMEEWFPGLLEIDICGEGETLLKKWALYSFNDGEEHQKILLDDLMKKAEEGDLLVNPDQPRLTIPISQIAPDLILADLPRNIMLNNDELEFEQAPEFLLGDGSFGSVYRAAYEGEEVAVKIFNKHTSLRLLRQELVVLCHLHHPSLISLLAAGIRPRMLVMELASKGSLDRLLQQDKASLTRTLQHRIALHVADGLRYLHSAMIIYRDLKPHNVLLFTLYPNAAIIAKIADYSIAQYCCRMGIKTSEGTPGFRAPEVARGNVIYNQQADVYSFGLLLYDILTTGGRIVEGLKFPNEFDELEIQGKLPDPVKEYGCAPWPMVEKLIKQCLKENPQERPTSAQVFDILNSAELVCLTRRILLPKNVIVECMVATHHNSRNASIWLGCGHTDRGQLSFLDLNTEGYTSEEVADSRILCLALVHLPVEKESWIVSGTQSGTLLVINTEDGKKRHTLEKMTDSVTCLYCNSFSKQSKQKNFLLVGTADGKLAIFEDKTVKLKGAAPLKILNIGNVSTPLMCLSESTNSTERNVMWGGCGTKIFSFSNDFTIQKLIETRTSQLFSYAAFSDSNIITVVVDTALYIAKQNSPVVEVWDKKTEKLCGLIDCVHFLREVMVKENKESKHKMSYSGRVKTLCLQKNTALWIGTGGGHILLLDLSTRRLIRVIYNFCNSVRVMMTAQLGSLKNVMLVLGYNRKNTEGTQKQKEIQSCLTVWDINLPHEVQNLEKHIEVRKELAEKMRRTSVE

Compound	LRRK2 pIC50
Cc1cc2cnc(NC(=O)C3CC34CCOCC4)cc2cc1N1CCN(C2(C)COCC2O)[C@@H](C)C1 (some centres unmarked) [Ex-6.10]	9.26
CC1(O)CC2(CN(c3cc4cc(NC(=O)C5CC5)ncc4cc3Cl)C2)C1 [Ex-4.5]	7.72
CC1(N2CCN(c3cc4cc(NC(=O)C5CC56CCOCC6)ncc4cc3C3CC3)CC2)COCC1O (centres unmarked) [Ex-6.11]	9.57

same assay, conditions: 134 μM ATP (Km ATP), LRRKtide substrate, mean of several tests, read-out: LRRK2 pIC50 (converted)

Compound	IC50 [nM]
Cn1ncc(C2CC2C(=O)Nc2cc3cc(N4CCN(C5(C)CCOC5)CC4)c(Cl)cc3cn2)c1C(F)(F)F (single isomer, unassigned) [Ex-10.27, (1R,2R or 1S,2S)-N-[7-chloro-6-[4-((R or S)-3-methyltetrahydrofuran-3-yl)piperazin-4-ium-1-yl]-3-isoquinolyl]-2-[1-methyl-5-(trifluoromethyl)pyrazol-4-yl]cyclopropanecarboxamide]	38
CC1(C2CCOC2)CC1C(=O)Nc1cc2cc(N3CCN(C4(C)COCC4O)CC3)c(Cl)cc2cn1 (single isomer, unassigned) [Ex-10.86, (1R,2R or 1S,2S, or 1R,2S, or 1S,2R)-N-[7-chloro-6-[4-((3R,4R or 3S,4S)-4-hydroxy-3-methyl-tetrahydrofuran-3-yl)piperazin-1-yl]-3-isoquinolyl]-2-methyl-2-tetrahydrofuran-3-yl-cyclopropanecarboxamide]	0.0813
CCC1C(C(=O)Nc2cc3cc(N4CCN(C5(C)CCOC5)CC4)c(C)cc3cn2)C1c1cnn(C)c1 (single isomer, unassigned) [Ex-10.38, (1R,2R,3R, 1R,2S,3R, 1S,2R,3S, or 1S,2S,3S)-2-ethyl-N-[7-methyl-6-[4-((R or S)-3-methyltetrahydrofuran-3-yl)piperazin-4-ium-1-yl]-3-isoquinolyl]-3-(1-methylpyrazol-4-yl)cyclopropanecarboxamide]	0.759
CC1(N2CCN(c3cc4cc(NC(=O)C5CC56CCCOC6)ncc4cc3Cl)CC2)COCC1O (single isomer, unassigned) [Ex-1.17, (1R,3S, or 1R,3R, or 1S,3S, or 1S,3R)-N-(7-chloro-6-(4-((3R,4R or 3S,4S)-4-hydroxy-3-methyltetrahydrofuran-3-yl)piperazin-1-yl)isoquinolin-3-yl)-5-oxaspiro[2.5]octane-1-carboxamide]	776
CC1(N2CCN(c3cc4cc(NC(=O)C5CC56CCOCC6)ncc4cc3Cl)CC2)COCC1C#N (racemic) [Ex-18.1]	0.912
CC1(N2CCN(c3cc4cc(NC(=O)C5CCC(F)(F)CO5)ncc4cc3Cl)CC2)COCC1O (single isomer, unassigned) [Ex-10.2, (2R or 2S)-N-(7-chloro-6-((3R, 4R or 3S, 4S)-4-(4-hydroxy-3-methyltetrahydrofuran-3-yl)piperazin-1-yl)isoquinolin-3-yl)-5,5-difluorotetrahydro-2H-pyran-2-carboxamide]	0.676
Cc1cc2cnc(NC(=O)C3C4CCOCC43)cc2cc1N1CCN(C2(C)CCOC2)CC1 (single isomer, unassigned) [Ex-10.48, (1S,6R,7R, 1R,6S,7R, or 1R, 6S,7S, or 1S,6S,7S)-N-(7-methyl-6-(4-((R or S)-3-methyltetrahydrofuran-3-yl)piperazin-1-yl)isoquinolin-3-yl)-3-oxabicyclo[4.1.0]heptane-7-carboxamide]	17.4
Cc1cc2cnc(NC(=O)C3CC3c3cnn(C)c3C(F)(F)F)cc2cc1N1CCN(C2(C)CCOC2)CC1 (single isomer, unassigned) [Ex-10.35, (1R,2R or 1S,2S)-N-[7-methyl-6-[4-((R or S)-3-methyltetrahydrofuran-3-yl)piperazin-1-yl]-3-isoquinolyl]-2-[1-methyl-5-(trifluoromethyl)pyrazol-4-yl]cyclopropanecarboxamide]	1.7
N#CC1(F)CCN(c2cc3cc(NC(=O)C4CC4c4cncnc4)ncc3cc2Cl)CC1 (single isomer, unassigned) [Ex-5.19]	117
CC1C(C(=O)Nc2cc3cc(N4CCN(C5(C)COCC5O)CC4)c(Cl)cc3cn2)C1c1ccn(C)n1 (single isomer, unassigned) [Ex-10.53, (1R,2R,3R, 1R,2S,3R, or 1S,2R,3S, or 1S,2S,3S)-N-[7-chloro-6-[4-((3R,4R or 3S,4S)-4-hydroxy-3-methyl-tetrahydrofuran-3-yl)piperazin-1-yl]-3-isoquinolyl]-2-methyl-3-(1-methylpyrazol-3-yl)cyclopropanecarboxamide]	0.0813
Cc1cc2cnc(NC(=O)C3CC34CCOC4)cc2cc1N1CCN(C2(C)COCC2O)CC1 (single isomer, unassigned) [Ex-6.2, (1R, 3S or 1S,3R, or 1R,3S, or 1S,3S)-N-(6-(4-((3R, 4R or 3S,4S)-4-hydroxy-3-methyltetrahydrofuran-3-yl)piperazin-1-yl)-7-methylisoquinolin-3-yl)-5-oxaspiro[2.4]heptane-1-carboxamide]	1.38
CC(C)n1nccc1C1CC1C(=O)Nc1cc2cc(N3CCN(C4(C)COCC4O)CC3)c(Cl)cc2cn1 (single isomer, unassigned) [Ex-10.21, (1R,2R or 1S,2S)-N-[7-chloro-6-[4-((3R,4R or 3S,4S)-4-hydroxy-3-methyl-tetrahydrofuran-3-yl)piperazin-1-yl]-3-isoquinolyl]-2-(2-isopropylpyrazol-3-yl)cyclopropanecarboxamide]	44.7
CCC1(N2CCN(c3cc4cc(NC(=O)C5CC56CCOCC6)ncc4cc3Cl)CC2)COCC1O (single isomer, unassigned) [Ex-2.22, (R or S)-N-(7-chloro-6-(4-((3R,4R or 3S,4S)-3-ethyl-4-hydroxytetrahydrofuran-3-yl)piperazin-1-yl)isoquinolin-3-yl)-6-oxaspiro[2.5]octane-1-carboxamide]	0.372
COC1COCC1(C)N1CCN(c2cc3cc(NC(=O)C4CC45CCOCC5)ncc3cc2Cl)CC1 (single isomer, unassigned) [Ex-5.6]	316
Cc1cc2cnc(NC(=O)C3CC3c3ccccn3)cc2cc1N1CCN(C2(C)CCOC2)CC1 (single isomer, unassigned) [Ex-9.18]	100
CC1(C)CC(C(=O)Nc2cc3cc(N4CCN(C5(C)COCC5O)CC4)c(Cl)cc3cn2)CO1 (single isomer, unassigned) [Ex-1.21, (R or S)-N-(7-chloro-6-(4-((3R,4R or 3S,4S)-4-hydroxy-3-methyltetrahydrofuran-3-yl)piperazin-1-yl)isoquinolin-3-yl)-5,5-dimethyltetrahydrofuran-3-carboxamide]	1.74
CC1(N2CCN(c3cc4cc(NC(=O)C5CC5c5cccs5)ncc4cc3Cl)CC2)COCC1O (single isomer, unassigned) [Ex-10.13, (1R,2R or 1R,2S)-N-[7-chloro-6-[4-((3R,4R or 3S,4S)-4-hydroxy-3-methyl-tetrahydrofuran-3-yl)piperazin-1-yl]-3-isoquinolyl]-2-(2-thienyl)cyclopropanecarboxamide]	0.0813
C[C@]1(O)COC[C@@]1(C)N1CCN(c2cc3cc(NC(=O)[C@@H]4CC45CCOCC5)ncc3cc2Cl)CC1 (single isomer, unassigned) [Ex-17.1, (R) or (S)-N-(7-chloro-6-((3R,4R) or (3S,4S)-4-(4-hydroxy-3,4-dimethyltetrahydrofuran-3-yl)piperazin-1-yl)isoquinolin-3-yl)-6-oxaspiro[2.5]octane-1-carboxamide]	0.0813
COCC1CCC1C(=O)Nc1cc2cc(N3CCN(C4(C)COCC4O)CC3)c(Cl)cc2cn1 (single isomer, unassigned) [Ex-1.26, (1R,2S or 1R,2R, or 1S,2S, or 1S,2R)-N-(7-chloro-6-(4-((3R,4R)-4-hydroxy-3-methyltetrahydrofuran-3-yl)piperazin-1-yl)isoquinolin-3-yl)-2-(methoxymethyl)cyclobutane-1-carboxamide]	1.45
CC1(N2CCN(c3cc4cc(NC(=O)C5CC56CCOCC6)ncc4cc3Cl)CC2)CCOC1 (single isomer, unassigned) [Ex-5.12]	126
O=C(Nc1cc2cc(N3CCN(C4COCC4O)CC3)c(Cl)cc2cn1)C1CC12CCOCC2 (single isomer, unassigned) [Ex-2.8, (R or S)-N-(7-chloro-6-(4-((3R,4R or 3S,4S)-4-hydroxytetrahydrofuran-3-yl)piperazin-1-yl)isoquinolin-3-yl)-6-oxaspiro[2.5]octane-1-carboxamide]	24
Cn1ncc(C2CC2C(=O)Nc2cc3cc(N4CCN(C5(C)COCC5O)CC4)c(Cl)cc3cn2)n1 (single isomer, unassigned) [Ex-16.1, (1S,2R or 1S,2S)-N-(N-(7-chloro-6-(4-(4-hydroxy-3-methyltetrahydrofuran-3-yl)piperazin-1-yl)isoquinolin-3-yl)-2-(2-methyl-2H-1,2,3-triazol-4-yl)cyclopropane-1-carboxamide]	0.145
CC1(N2CCN(c3cc4cc(NC(=O)C5CC5c5ccco5)ncc4cc3Cl)CC2)COCC1O (single isomer, unassigned) [Ex-10.29, (1R,2R or 1S,2S)-N-[7-chloro-6-[4-((3R,4R or 3S,4S)-4-hydroxy-3-methyl-tetrahydrofuran-3-yl)piperazin-1-yl]-3-isoquinolyl]-2-(2-furyl)cyclopropanecarboxamide]	0.275
CC1(C)CC2(CCO1)CC2C(=O)Nc1cc2cc(N3CCN(C4(C)COCC4O)CC3)c(Cl)cc2cn1 (single isomer, unassigned) [Ex-7.3]	3.72
CC1(N2CCN(c3cc4cc(NC(=O)C5CCC56CCOCC6)ncc4cc3Cl)CC2)COCC1O (single isomer, unassigned) [Ex-1.27, (R or S)-N-(7-chloro-6-(4-((3R,4R or 3S,4S)-4-hydroxy-3-methyltetrahydrofuran-3-yl)piperazin-1-yl)isoquinolin-3-yl)-7-oxaspiro[3.5]nonane-1-carboxamide]	1.29
N#CC1(F)CCN(c2cc3cc(NC(=O)C4CC4c4cncnc4)ncc3cc2Cl)CC1 (single isomer, unassigned) [Ex-5.20]	9.12
